# Entries after “also recorded” stand apart in the source; their conditions may differ.
# What was measured:
# Format in all cases: cell-based, human
# [1] = system: PBMCs from critically ill patients; test: Osteoclast formation (TRAP staining, day 14) in PBMCs from critically ill patients cultured in critically ill patient serum; details: low doses, compounds added d1-d14, TRAP staining at day 14
# Description: We have determined that the treatment of patient's peripheral blood mononuclear cell (PBMCs), in particular, PBMCs of critically ill patients with autophagy inducers can be used to suppress enhanced osteoclastogenesis. It turned out that a particular advantage is that such autophagy inducers can be targeted to particularly treat the PBMCs.
# [2] = system: Peripheral Blood Mononuclear Cells (PBMCs); test: Osteoclast resorption of a hydroxyapatite layer (Von Kossa, ImageJ) by PBMC-derived osteoclasts; details: 14 days; for osteoclast activity (resorption): healthy PBMCs stimulated with RANKL and M-CSF, dose response, 10^-6, 10^-7 and 10^-8 M
# Procedure: PBMCs were isolated from the whole blood of patients or healthy volunteers by means of Ficoll-Paque Plus (GE Healthcare, Brussels, Belgium) density gradient centrifugation according to the manufacturer's instructions. Heparinized whole blood (20 ml) was drawn from each individual and diluted 1:1 with alpha minimal essential medium (α-MEM; Lonza, Braine-l'Alleud, Belgium), before being layered over Ficoll-Paque and centrifuged at 450 g for 40 min. The mononuclear cell interface was then removed and washed 3 times with α-MEM. Cells were stored in liquid nitrogen until use and seeded at a density of 5×10^5 cells per well. All cultures were performed in quadruplicate in 16-well culture slides (VWR, Leuven, Belgium) or 16-well BD Biocoat Osteologic Slides (BD Biosciences), and cells were cultured in α-MEM supplemented with 10% FBS, 100 IU/ml penicillin and 100 μg/ml streptomycin (“complete medium”), or complete medium plus M-CSF (25 ng/ml) and RANKL (30 ng/ml). […]
# (§1) After 14 days, PBMCs were fixed and stained for the osteoclast-specific marker tartrate-resistant acid phosphate (TRAP), and the nuclear marker DAPI, as previously described. The formation of TRAP positive multi-nucleated (more than three nuclei) cells was quantified by counting the multi-nuclear stained cells in each well (D'Amelio P, Grimaldi A, Pescarmona G P, Tamone C, Roato I, Isaia G. Spontaneous osteoclast formation from peripheral blood mononuclear cells in postmenopausal osteoporosis. FASEB J. 2005; 19(3):410-2.). Filamentous (F)-actin rings representing active osteoclasts were visualized after staining of the actin cytoskeleton with the toxin phalloidin conjugated to FITC, and quantified by counting, as described above. […] Lacunar resorption was determined by measuring the total area unstained by Von-Kossa (total area resorbed) using ImageJ software (National Institute of Health, MD, USA), and was expressed as the total percentage of the surface reabsorbed. […]
# [3] = system: Peripheral Blood Mononuclear Cells (PBMCs); test: Osteoclast formation: TRAP positive multinuclear cells in PBMC cultures; details: for TRAP positive multinuclear cells (osteoclast formation): spermidine 10^-8 M; for spontaneous osteoclast formation: 14 days
# Procedure: PBMCs were isolated from the whole blood of patients or healthy volunteers by means of Ficoll-Paque Plus (GE Healthcare, Brussels, Belgium) density gradient centrifugation according to the manufacturer's instructions. Heparinized whole blood (20 ml) was drawn from each individual and diluted 1:1 with alpha minimal essential medium (α-MEM; Lonza, Braine-l'Alleud, Belgium), before being layered over Ficoll-Paque and centrifuged at 450 g for 40 min. The mononuclear cell interface was then removed and washed 3 times with α-MEM. Cells were stored in liquid nitrogen until use and seeded at a density of 5×10^5 cells per well. All cultures were performed in quadruplicate in 16-well culture slides (VWR, Leuven, Belgium) or 16-well BD Biocoat Osteologic Slides (BD Biosciences), and cells were cultured in α-MEM supplemented with 10% FBS, 100 IU/ml penicillin and 100 μg/ml streptomycin (“complete medium”), or complete medium plus M-CSF (25 ng/ml) and RANKL (30 ng/ml). In order to study the effect of circulating factors on osteoclast formation, PBMCs were also grown in α-MEM containing 10% human healthy volunteer serum (HS) or 10% patient serum (PS), in the presence or absence of M-CSF (25 ng/ml) and RANKL (30 ng/ml). For cytokine neutralization experiments, PBMCs were grown in α-MEM/10% PS for 14 days, in the presence of varying concentrations of anti-TNF-α and/or anti-IL-6 (R&D Systems, Abingdon, UK). All cultures were maintained at 37° C. in a humidified atmosphere with 5% CO2.
# as §1
# p62 protein = test: Autophagy marker p62 protein expression (western blot) in PBMCs/osteoclasts; details: healthy PBMCs, RANKL/MCSF stimulated, spermidine 2×10^-8 M, 14 days
# Description: We also measured markers of autophagy in the cell lysates from these experiments. The concentration of proteins we obtained were quite low, and there was insufficient protein to measure anything by western blotting in the “sick spermidine” group. […] There was no effect of spermidine on the healthy PBMCs (FIG. 6).
# FIG. 6 concerns autophagy marker p62 protein expression in healthy and sick PBMCs/osteoclasts (RANKL/MCSF stimulated) and the effect of spermidine on healthy PBMCs/osteoclasts. Healthy and sick PBMCs were cultured for 14 days with or without spermidine (2×10^−8 M) in 6 well plates (5×10^6 cells/well). After 14 days, protein was extracted using the Ambion PARIS extraction kit (Applied Biosystems), and proteins quantified using the BC Protein Assay (Thermo Fischer Scientific). (A) 5 ug of protein was subjected to 15% Bis-tris gelelectrophoresis, transferred to nitrocellulose membrane and incubated at 4° C. overnight in Anti-p62 (Novus Biologicals; 1:1000). p62 protein was detected by ECL following incubation with AntiMouseIgG (DAKO; 1:1000). GAPDH was used as a loading control. (B) p62 relative expression was quantified with Image QuantTL (Amersham Biosciences) and normalized to GAPDH (n=3; ***p≦0.05 vs. Healthy).
structure (smiles),measurement,setting,value
Nc1ncn([C@@H]2O[C@H](CO)[C@@H](O)[C@H]2O)c(=O)n1 [5-azacytidine],critical illness enhanced osteoclast formation,[1],inhibiting effect
"CO[C@H]1C[C@@H]2CC[C@@H](C)[C@@](O)(O2)C(=O)C(=O)N2CCCC[C@H]2C(=O)O[C@H]([C@H](C)C[C@@H]2CC[C@@H](OCCO)[C@H](OC)C2)CC(=O)[C@H](C)/C=C(\C)[C@@H](O)[C@@H](OC)C(=O)[C@H](C)C[C@H](C)/C=C/C=C/C=C/1C [Everolimus, 40-O-(2-hydroxyethyl)-rapamycin]",critical illness enhanced osteoclast formation,[1],inhibiting effect
"CC(CN1c2ccccc2Sc2ccccc21)N(C)C (stereo not drawn) [Promethazine, 10-(2-dimethylaminopropyl)phenothiazine]",critical illness enhanced osteoclast formation,[1],inhibiting effect
NCCCCNCCCN [Spermidine],osteoclast activity (resorption),[2],reduced
same,osteoclast activity (resorption),[2]; listed as spermidine,inhibits
same,osteoclast resorption of hydroxyapatite layer,"[2]; sick stimulated (RANKL/MCSF) PBMCs, increase vs healthy, spermidine 2×10^-8 M",reduced; also recorded: completely blocked
same,TRAP positive multinuclear cells (osteoclast formation),"[3]; healthy PBMCs stimulated with RANKL and MCSF, day 14","did not, however, have a significant effect"
same,spontaneous osteoclast formation,[3]; healthy unstimulated (no RANKL or MCSF) PBMCs,no effect
same,TRAP positive multinuclear cells (osteoclast formation),"[3]; sick (critically ill) PBMCs stimulated with RANKL and MCSF, day 14, vs control sick PBMCs",significant reduction; also recorded: completely blocked
same,spontaneous osteoclast formation,"[3]; sick unstimulated (no RANKL or MCSF) PBMCs, increase vs healthy",completely knocked down
same,p62 protein expression,p62 protein,no effect
same,critical illness enhanced osteoclast formation,[1],inhibiting effect
